From patent US20030216361A1, “Therapeutic compositions effective against gram positive bacteria” (priority 2000, published 2003)
Values after ≈ are worked out from the molar mass of the structure shown. Values joined by “and” are separate entries in the source; they are usually repeats but may differ in a detail not shown here. Equal values may be shown once. Read-outs that look alike come from different tables or passages of the source. Marks after values point to notes of the source that are not given here.

Key:
[1] = system: Bacillus subtilis Presque Isle 620; test: Effect of pH on broth macrodilution MICs; format: cell-based
[2] = system: Listeria monocytogenes, clinical isolate; test: Effect of pH on broth macrodilution MICs; format: cell-based
[3] = system: Corynebacterium diphtheriae, clinical isolate; test: Effect of pH on broth macrodilution MICs; format: cell-based
[4] = system: ATCC 14154, mouse virulent Staphylococcus aureus; test: Mouse model of topical Gram positive (Staphylococcus aureus) infection, infected suture; format: in vivo; conditions: mice; for Total colonies (number of Staph colonies per suture), individual animals: animals 1-10; for Total colonies (number of Staph colonies per suture), Ave.: average of 10 animals
Method: The model, as described in J. Gisby and J. Bryant, Antimicrobial Agents and Chemotherapy, February 2000, Vol. 44, No. 2, p 255-260, was used.
Fifty HSD:ICR male mice weighing 12-14 grams were ordered and allowed to acclimate 7 days. Mice were allocated to 5 groups of 10 animals each.
Group 1: infected suture placed, no treatment
Group 2: topical GRPB, 12.5 mg/kg BID×7 days
Group 3: topical GRPB, 25 mg/kg BID×7 days
Group 4: clean suture, no treatment
Group 5: enrofloxacin (Baytril) 10 mg/kg SQ SID×7 days
ATCC 14154, mouse virulent Staphylococcus aureus was grown in BHI broth overnight (12 hours) at 38 degrees C. Forty-five minutes prior to surgery, silk suture (2-0 size, 1 cm lengths w/swaged-on blunt needle) was soaked in the broth for 30 minutes, excess liquid was then removed by blotting with filter paper.
Mice were anesthetized with a ketamine (40 mg/kg), midazolam (2 mg/kg), and butorphanol (0.1 mg/kg) as a single IP injection.
The skin on the back of the mouse was prepared for aseptic surgery by clipping, cleansing with iodine scrub, and rinsing with alcohol. Mice were kept warm during surgery on a recirculating hot water blanket.
The suture was placed just under the skin on the dorsum of the animal using sterile instruments. The suture was knotted in the subcutaneous tissue to keep it in place. A half-thickness skin wound was made over the suture using the side of an 18 gauge needle as a scalpel.
Mice were allowed to recover in the home cage.
GRPB-10-15A was reconstituted as directed, using a minimal amount of methanol followed by dilution to required volume in sterile physiologic saline.
Injections were given using insulin syringes with 30 gauge needles. Topical administration was placed over the wound site. The mice were first treated 4 hours after surgery and were treated once or twice daily thereafter.
After 7 days of treatment animals were euthanized with IP pentobarbital euthanasia solution. The suture lengths were removed and placed in 2 mls phosphate buffered saline. Serial dilutions were performed and results reported as actual counts (number of Staph colonies per suture).

[5] = system: Pseudomonas aeruginosa Presque Isle 99; test: Disk diffusion susceptibility testing
[6] = system: Neisseria gonorrhoeae ATCC 49226; test: Disk diffusion susceptibility testing
[7] = system: Klebsiella pneumoniae Presque Isle 344; test: Disk diffusion susceptibility testing
[8] = system: Proteus vulgaris Presque Isle 365; test: Disk diffusion susceptibility testing
[9] = system: Cryptococcus neoformans ATCC 90112; test: Disk diffusion susceptibility testing
S. saprophyticus = test: Broth macrodilution MIC and MBC, clinical isolates; conditions: 3 strains
Invasive S. pneumoniae = test: Broth macrodilution MIC and MBC, clinical isolates
Group A Streptococcus = test: Broth macrodilution MIC and MBC, clinical isolates
B. cereus = test: Broth macrodilution MIC and MBC, clinical isolates; conditions: 5 strains
B. licheniformis = test: Broth macrodilution MIC and MBC, clinical isolates; conditions: clinical isolate, 1 strain
Paenibacillus alvei = test: Broth macrodilution MIC and MBC, clinical isolates; conditions: clinical isolate, 1 strain
Rhodococcus spp. = test: Broth macrodilution MIC and MBC, clinical isolates
R. equi = test: Broth macrodilution MIC and MBC, clinical isolates; conditions: 3 strains
C. sputi = test: Broth macrodilution MIC and MBC, clinical isolates; conditions: clinical isolate, 1 strain
[10] = system: Arcanobacterium haemolyticum; test: Broth macrodilution MIC and MBC, clinical isolates; conditions: clinical isolate, 1 strain
[11] = system: Enterococcus faecalis ATCC 29212; test: Broth macrodilution MIC and MBC, reference strains; conditions: ATCC29212
[12] = system: Streptococcus pneumoniae ATCC 6303; test: Broth macrodilution MIC and MBC, reference strains; conditions: ATCC6303
[13] = system: Bacillus subtilis Presque Isle 620; test: Broth macrodilution MIC and MBC, reference strains
[14] = system: Corynebacterium hoagi ATCC 7005; test: Broth macrodilution MIC and MBC, reference strains; conditions: ATCC7005
[15] = pH 6, range of 3 determinations
[16] = pH 7, range of 3 determinations
[17] = pH 8, range of 3 determinations
[18] = Group 2 low GRPB, topical 12.5 mg/kg BID×7 days
[19] = Group 3 high GRPB, topical 25 mg/kg BID×7 days

## CC(=O)O[C@H]1CC[C@@]2(C)[C@@H](CC[C@@H]3[C@@H]2CC[C@]2(C)[C@@H](NC(=O)[C@@H]4CCCN4)CC[C@@H]32)C1
[1]; [15]
  MIC Range: 8 µg/mL (≈ 18.6 µM)
[1]; [16]
  MIC Range: 4 to 8 µg/mL
[1]; [17]
  MIC Range: 4 to 8 µg/mL
[2]; [15]
  MIC Range: 32 µg/mL (≈ 74.3 µM)
[2]; [17]
  MIC Range: 16 µg/mL (≈ 37.2 µM)
[3]; [15]
  MIC Range: 16 µg/mL (≈ 37.2 µM)
[3]; [16]
  MIC Range: 4 to 8 µg/mL
[3]; [17]
  MIC Range: 2 to 4 µg/mL
[4]; [18]
  Total colonies (number of Staph colonies per suture), individual animals: 227 colonies per suture and 1993 colonies per suture and 832 colonies per suture and 317 colonies per suture and 1174 colonies per suture and 399 colonies per suture and 2523 colonies per suture and 968 colonies per suture and 739 colonies per suture and 1109 colonies per suture
  Total colonies (number of Staph colonies per suture), Ave.: 1028 colonies per suture
[4]; [19]
  Total colonies (number of Staph colonies per suture), individual animals: 890* colonies per suture and 328 colonies per suture and 483 colonies per suture and 289 colonies per suture and 626 colonies per suture and 572 colonies per suture and 456 colonies per suture and 344 colonies per suture and 565 colonies per suture and 362 colonies per suture
  Total colonies (number of Staph colonies per suture), Ave.: 492 colonies per suture
[5]
  MIC: >100 μg/disk
[6]
  MIC: >100 μg/disk
[7]
  MIC: >100 μg/disk
[8]
  MIC: >100 μg/disk
[9]
  MIC: >100 μg/disk
S. saprophyticus
  MBC Range: 8 µg/mL (≈ 18.6 µM)
  MIC Range: 4 to 8 µg/mL
Invasive S. pneumoniae; Streptococcus pneumoniae
  MIC50: 8 µg/mL (≈ 18.6 µM)
Invasive S. pneumoniae; clinical isolates, 15 strains
  MBC Range: 8 to 64 µg/mL
Invasive S. pneumoniae; invasive S. pneumoniae
  share of strains with MBC/MIC ratios ≦2: 93%
Group A Streptococcus; Group A Streptococcus
  share of strains with MBC/MIC ratios ≦2: 89%
Group A Streptococcus; Streptococcus
  MIC50: 8 µg/mL (≈ 18.6 µM)
  MIC90: 16 µg/mL (≈ 37.2 µM)
Group A Streptococcus; Streptococcus, read-out: MBC 50%
  MBC: 16 µg/mL (≈ 37.2 µM)
Group A Streptococcus; Streptococcus, read-out: MBC 90%
  MBC: 32 µg/mL (≈ 74.3 µM)
Group A Streptococcus; clinical isolates, 18 strains
  MBC Range: 8 to 32 µg/mL
  MIC Range: 8 to 16 µg/mL
B. cereus
  MBC Range: >64 µg/mL
  MIC Range: 32 µg/mL (≈ 74.3 µM)
B. licheniformis
  MBC Range: >64 µg/mL
  MIC Range: 32 µg/mL (≈ 74.3 µM)
Paenibacillus alvei
  MBC Range: >64 µg/mL
  MIC Range: 16 µg/mL (≈ 37.2 µM)
Rhodococcus spp.; Rhodococcus
  MIC50: 8 µg/mL (≈ 18.6 µM)
  MIC90: 16 µg/mL (≈ 37.2 µM)
Rhodococcus spp.; Rhodococcus spp.
  share of strains with MBC/MIC ratios ≦2: 58%
Rhodococcus spp.; Rhodococcus, read-out: MBC 50%
  MBC: 16 µg/mL (≈ 37.2 µM)
Rhodococcus spp.; Rhodococcus, read-out: MBC 90%
  MBC: 32 µg/mL (≈ 74.3 µM)
Rhodococcus spp.; clinical isolates, 19 strains, read after 48 h
  MIC Range: 4 to 64 µg/mL
R. equi
  MBC Range: 16 to 32 µg/mL
R. equi; read after 48 h
  MIC Range: 4 to 8 µg/mL
C. sputi
  MBC Range: 32 µg/mL (≈ 74.3 µM)
C. sputi; read at 72 h
  MIC Range: 8 µg/mL (≈ 18.6 µM)
[10]
  MBC Range: 32 µg/mL (≈ 74.3 µM)
  MIC Range: 16 µg/mL (≈ 37.2 µM)
[11]
  MBC: 32 µg/mL (≈ 74.3 µM)
  MIC: 16 µg/mL (≈ 37.2 µM)
[12]
  MBC: 16 µg/mL (≈ 37.2 µM)
  MIC: 16 µg/mL (≈ 37.2 µM)
[13]
  MBC: 4 µg/mL (≈ 9.29 µM)
  MIC: 4 µg/mL (≈ 9.29 µM)
[14]
  MBC: 32 µg/mL (≈ 74.3 µM)
  MIC: 8 µg/mL (≈ 18.6 µM)
